Results on three molecules are retold here after EP0558673B1, “RETROVIRAL PROTEASE INHIBITORS” (MONSANTO COMPANY, priority 1990, dated 1992).

The test system of test [1] is HIV-1. Kind of test: CEM cell assay: HIV inhibition assay of acutely infected cells (tetrazolium/MTT colorimetric). It is filed as cell-based. The settings on record: Human immunodeficiency virus 1, CCRF-CEM, 168 h; Table 17; CEM cells acutely infected with HIV-1, 7 days, MTT readout; read-out: EC₅₀. As to the method:
The effectiveness of the compounds listed in Table 16 were determined in the above-described enzyme assay and in a CEM cell assay.
Methods 20, 309-321 (1988).

For test [2], the target named is T1, HIV protease (Human immunodeficiency virus type 1 group M subtype B, UniProt P04585).
T1 construct: final enzyme concentration of 12.3 nanomolar, based on a molecular weight of 10,780
The test is described as follows: HIV protease enzyme assay (fluorescence, substrate 2-aminobenzoyl-Ile-Nle-Phe(p-NO₂)-Gln-ArgNH₂). The settings on record: Table 16; enzyme 12.3 nanomolar, substrate 80 µM, pH 6.4, ambient temperature; read-out: IC₅₀. It counts as biochemical. From the text: The compounds of the present invention are effective HIV protease inhibitors. Utilizing an enzyme assay as described below, the compounds set forth in the examples herein disclosed inhibited the HIV enzyme. The preferred compounds of the present invention and their calculated IC₅₀ (inhibiting concentration 50%, i.e., the concentration at which the inhibitor compound reduces enzyme activity by 50%) values are shown in Table 16. The enzyme method is described below. The substrate is 2-aminobenzoyl-Ile-Nle-Phe(p-NO₂)-Gln-ArgNH₂. The positive control is MVT-101 (Miller, M. et al, Science, 246, 1149 (1989)] The assay conditions are as follows: Assay buffer: 20 mM sodium phosphate, pH 6.4 20% glycerol 1 mM EDTA 1 mM DTT 0.1% CHAPS
The above described substrate is dissolved in DMSO, then diluted 10 fold in assay buffer. Final substrate concentration in the assay is 80 µM.
HIV protease is diluted in the assay buffer to a final enzyme concentration of 12.3 nanomolar, based on a molecular weight of 10,780.
The final concentration of DMSO is 14% and the final concentration of glycerol is 18%. The test compound is dissolved in DMSO and diluted in DMSO to 10x the test concentration; 10µl of the enzyme preparation is added, the materials mixed and then the mixture is incubated at ambient temperature for 15 minutes. The enzyme reaction is initiated by the addition of 40µl of substrate. The increase in fluorescence is monitored at 4 time points (0, 8, 16 and 24 minutes) at ambient temperature. Each assay is carried out in duplicate wells.

On to `CC(C)CCN(C[C@@H](O)[C@H](Cc1ccccc1)NC(=O)[C@@H](NS(=O)(=O)CCc1ccccc1)C(C)(C)C)C(=O)NC(C)(C)C` (relative stereo) [Compound 1, 3-Thia-4,7,11-triazadodecan-12-amide, N,5-bis(1,1-dimethylethyl)-9-hydroxy-11-(3-methylbutyl)-6-oxo-8-(phenylmethyl)-1-phenyl-, 2,2-dioxide-,5S-,(5R*,8R*,9S*)]], for which, in test [1], the EC50 was found to be 510 nM. Also, in test [2], the IC50 stood at 22 nM. In the case of `CC(C)CCN(C[C@@H](O)[C@H](Cc1ccccc1)NC(=O)[C@H](CC(N)=O)NS(=O)(=O)CCc1ccccc1)C(=O)NC(C)(C)C` (relative stereo) [Compound 3, 3-Thia-4,7,11-triazadodecan-12-amide, N-(1,1-dimethylethyl)-5-(2-amino-2-oxo-ethyl)-9-hydroxy-11-(3-methylbutyl)-6-oxo-8-(phenylmethyl)-1-phenyl-, 2,2-dioxide-,[5S-,(5R*,8R*,9S*)]], the IC50 in test [2] was found to be 24 nM. Consider `CC(C)CCN(C[C@@H](O)[C@H](Cc1ccccc1)NC(=O)[C@@H](NS(=O)(=O)CCc1ccccc1)C(C)C)C(=O)NC(C)(C)C` (relative stereo) [Compound 2, 3-Thia-4,7,11-triazadodecan-12-amide, N-(1,1-dimethylethyl)-5-(1-methylethyl)-9-hydroxy-11-(3-methylbutyl)-6-oxo-8-(phenylmethyl)-1-phenyl-, 2,2-dioxide-,[5S-,(5R*,8R*,9S*)]], for which, in test [1], the EC50 was 440 nM. The IC50 in test [2] is 29 nM.
